The target in series [1] is human melatonin 1 receptors (human MT1 receptors) (Homo sapiens (Human), UniProt P48039). Description: Melatonin receptor binding assay, 2-[125I] Iodomelatonin, CHO-hMelR7 cell membrane fraction. The conditions noted are these: binding inhibition of 2-[125I] Iodomelatonin, CHO-hMelR7 membranes, 25° C., 2.5 hr. The method, then: (§1) Melatonin Receptor Binding Assay
(1) Preparation of CHO-hMelR7 Cells Expressing Human Melatonin 1 Receptors
(§2) (3) Preparation of Cell Membrane Fraction of CHO Cell (CHO-hMelR7 and CHO-hMT2) Stably Expressing Human MT1 and MT2 Receptors
(§3) CHO-hMelR7 and CHO-hMT2 cells were plated using Cellfactory (Nunc, #170009) under the conditions of 1×10^8 cells/2000 mL/flask. The cells were grown to confluent, and recovered by the following method. As the medium for CHO-hMelR7 and CHO-hMT2, MEM α containing 10% FBS and penicillin/streptomycin was used. […] of geneticin was added to the medium for CHO-hMT2.
(§4) The medium was discarded, cells were washed twice with 200 mL of EDTA/PBS(−), 200 mL of EDTA/PBS(−) was further added, and the cells were stood still at room temperature for 20 min until they were released. […] The mixture was further centrifuged at 1,500 rpm for 10 min at 4° C., and the obtained pellets were suspended in 20 mL of ice-cooled homogenizing buffer [10 mM NaHCO3, 5 mM EDTA, Protease inhibitor Complete (Roche), pH 7.4]. The cell suspension was homogenized 3 times using a polytron homogenizer at 20,000 rpm for 30 sec. The obtained homogenate was centrifuged (2,000 rpm, 10 min, 4° C.) using a low speed cooling centrifuge. The supernatant was recovered in an ultracentrifugation tube and ultracentrifuged (40,000 rpm, 60 min, 4° C.) using an ultracentrifuge (Beckman, L-90K). To the obtained pellets was added a suspending buffer [50 mM Tris-HCl, 1 mM EDTA, Protease inhibitor Complete (Roche), pH 7.4], and the pellets were suspended by pipetting. The protein concentration of this suspension was measured, diluted to 2 mg/mL to give cell membrane fractions of CHO-hMelR7 and CHO-hMT2 cells. […] Protein was quantified using BCA protein assay kit (Pierce) with BSA as the standard.
(§5) (4) Preparation of Membrane Fraction Suspension
(§6) Immediately before use, the membrane fractions of CHO-hMelR7 and CHO-hMT2 cells of the above-mentioned (3) were diluted 20-fold with assay buffer (50 mM Tris-HCl, pH 7.7).
(§7) Iodomelatonin (#NEX236, PerkinElmer) was diluted with the assay buffer to 400 pM for MT1 and 1 nM for MT2.
(§8) Then, a test compound (compound solution diluted with DMSO to 200-fold of the final measurement concentration) was added by 2 μL. 2 μL of DMSO was added to each well of the total binding control section, and 100 μM cold Melatonin solution (Sigma, diluted with DMSO to 100 μM) was added to each well of the nonspecific binding control section by 2 μL. Then, the membrane fraction suspension (100 μL) was added. […] Iodomelatonin solution of the above-mentioned (5) was added to each well mentioned above by 20 μL, and a binding reaction was carried out at 25° C. for 2.5 hr in a micromixer (TAITEC, Bioshaker M.BR-024).
(§9) Using a cell harvester (PerkinElmer), the binding reaction mixture in each well of the 96-well plate was transferred to a treated (immersed in 50 mM Tris, pH 7.7 in advance) filter plate (UniFilter GF/C, PerkinElmer) and filtered. After filtration, the plate was washed 4 times with the assay buffer, and dried in a dryer (42° C.) for 2 hr or more. 25 μL of a liquid scintillator (MicroScint O, PerkinElmer) was added to each well of the filter plate after drying, and the luminescence of scintillator was measured by TopCount (PerkinElmer) for 1 min.
(§10) Specific binding is a value obtained by subtracting nonspecific binding from the total binding. The binding inhibitory activity of the test compound is shown by the ratio of the value obtained by subtracting the measurement value when the test compound was added from the total binding, to the specific binding.

Series [2] has as its target human melatonin 2 receptors (human MT2 receptors) (Homo sapiens (Human), UniProt P49286). Briefly: Melatonin receptor binding assay, 2-[125I] Iodomelatonin, CHO-hMT2 cell membrane fraction. The note with it: binding inhibition of 2-[125I] Iodomelatonin, CHO-hMT2 membranes, 25° C., 2.5 hr. On the procedure:
as §1
(2) Preparation of CHO-hMT2 Cells Expressing Human Melatonin 2 Receptors
CHO-K1 cells (ATCC, #CCL-61) were plated at the concentration of 1.5×10^5 cells/cm^2 in a 6 well plate (ASAHI TECHNO GLASS), and cultured under the conditions of 37° C., 5% CO2 for 24 hr.
as §2, §3, §4, §5, §6, §7, §8, §9, §10

Series [3] is described as follows: In vitro metabolic stability test. It counts as in vitro ADME. The note with it: human liver microsome, NADPH production system, 37° C., 20 min incubation, HPLC-UV. The method, then: In Vitro Metabolic Stability Test
(1) Preparation of Analysis Sample
The necessary amounts of the analysis samples were prepared at the following composition ratio. Test compound mixture: 0.1 mol/L phosphate buffer (pH 7.4) (41 μL), control microsome (manufactured by Gentest, human lymphoblastoid cell-derived control microsome, 10 mg protein/mL) (8 μL), and test compound 0.1 mM methanol solution (1 μL). Microsome mixed solution: 0.1 mol/L phosphate buffer (pH 7.4) (9 μL), human liver microsome (manufactured by XENOTECH, H0610, 20 mg protein/mL) (1 μL), and purified water (20 μL). NADPH production system: 50 mmol/L β-NADP+ (200 μL), 500 mmol/L Glucose-6-phosphate (200 μL), 150 unit/mL Glucose-6-phosphate dehydrogenase (200 μL), 0.1 mol/L MgCl2 (1 mL), and purified water (2.4 mL).
Microsome mixed solution (30 μL) and NADPH production system (20 μL) were sequentially dispensed to each well of a 96 well plate (type 3371, Corning), and a test compound mixture (50 μL) was added. Acetonitrile (100 μL) was added before start of incubation at 37° C. or 20 min later to give samples before and after incubation. These samples were centrifuged (3,000 rpm, 10 min), and the supernatant was dispensed to a 96 well plate by about 100 μL and 2-fold diluted with purified water (100 μL). 90 μL thereof was analyzed by HPLC.
HPLC analysis Conditions • Instrument: Shimadzu LC10vp • Column: CAPCELL PAK C18 MGII (4.6×75 mm, 3 μm) • Mobile phase A: 10 mmol/L ammonium acetate:acetonitrile=9:1 • Mobile phase B: 10 mmol/L ammonium acetate:acetonitrile=1:9 • Flow rate: 1 mL/min • Column temperature: 40° C. • Detection: UV (250 nm) • Gradient: […]
(3) Data Analysis and Results
Elimination percentage was determined from the difference in the unchanged compound peak areas before and after the start of the reaction, normalized based on the reaction time and microsome concentration, and the elimination rate (%/min/mg) was calculated.
(In general: Liver microsomes are a subcellular fraction often used to study metabolism.)

human melatonin 1 receptors (human MT1 receptors), sequence (P48039 whole entry): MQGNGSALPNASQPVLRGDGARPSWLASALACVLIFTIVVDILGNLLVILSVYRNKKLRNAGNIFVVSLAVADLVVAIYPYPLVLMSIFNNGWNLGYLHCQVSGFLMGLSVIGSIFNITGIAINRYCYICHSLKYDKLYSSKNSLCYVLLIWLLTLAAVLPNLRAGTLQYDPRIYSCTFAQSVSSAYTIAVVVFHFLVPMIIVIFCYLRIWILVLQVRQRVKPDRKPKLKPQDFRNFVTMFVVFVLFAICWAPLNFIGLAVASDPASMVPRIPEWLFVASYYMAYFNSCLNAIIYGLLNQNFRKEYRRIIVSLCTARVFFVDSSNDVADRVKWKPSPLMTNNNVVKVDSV
human melatonin 2 receptors (human MT2 receptors), sequence (P49286 whole entry): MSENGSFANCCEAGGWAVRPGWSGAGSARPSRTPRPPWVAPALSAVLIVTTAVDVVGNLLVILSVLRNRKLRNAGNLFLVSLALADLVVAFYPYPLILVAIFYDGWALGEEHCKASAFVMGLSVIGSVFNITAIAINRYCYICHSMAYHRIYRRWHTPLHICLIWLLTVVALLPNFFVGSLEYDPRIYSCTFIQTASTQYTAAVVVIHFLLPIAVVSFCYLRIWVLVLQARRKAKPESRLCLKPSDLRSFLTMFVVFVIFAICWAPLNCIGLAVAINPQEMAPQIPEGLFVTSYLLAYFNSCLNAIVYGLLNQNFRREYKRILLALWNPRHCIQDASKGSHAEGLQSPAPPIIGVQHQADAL

On to `CC(=O)NCC[C@@H]1CCc2ccc3nc(C)oc3c21` [Example 12, (S)-N-[2-(2-Methyl-7,8-dihydro-6H-indeno[5,4-d][1,3]oxazol-8-yl)ethyl]acetamide], for which the IC50 (commonly the point on the concentration scale where inhibition reaches its midpoint) turned out to be 0.057 nM in series [1] and 0.13 nM in series [2]. Also, the “elimination rate (%/min/mg)” value in series [3] is given as −0.3 %/min/mg.

As to `CCC(=O)NCC[C@@H]1CCc2ccc3nc(C)oc3c21` [Example 15, (S)-N-[2-(2-Methyl-7,8-dihydro-6H-indeno[5,4-d][1,3]oxazol-8-yl)ethyl]propionamide], the IC50 worked out at 0.03 nM in series [1] and 0.049 nM in series [2]. The “elimination rate (%/min/mg)” value in series [3] stood at 2.6 %/min/mg.

`CC(=O)NCCC1CCc2ccc3nc(C)sc3c21` (stereo not shown) [Example 19, N-[2-(2-Methyl-7,8-dihydro-6H-indeno[5,4-d][1,3]thiazol-8-yl)ethyl]acetamide]: the IC50 in series [1] was determined as 0.15 nM; in series [2], 0.28 nM. Further, in series [3], the “elimination rate (%/min/mg)” value is given as 2.4 %/min/mg.

For `CC(=O)NCC[C@@H]1CCc2ccc3nc(C)sc3c21` [Example 20, (S)-N-[2-(2-Methyl-7,8-dihydro-6H-indeno[5,4-d][1,3]thiazol-8-yl)ethyl]acetamide], the IC50 was determined as 0.038 nM in series [1] and 0.12 nM in series [2]. Also, the “elimination rate (%/min/mg)” value in series [3] was 2.7 %/min/mg.

Take `CC(=O)NCCC1CCc2ccc3nc(C4CC4)oc3c21` (stereo not shown) [Example 29, N-[2-(2-Cyclopropyl-7,8-dihydro-6H-indeno[5,4-d][1,3]oxazol-8-yl)ethyl]acetamide]: the melting point (usually the temperature, or range, at which the solid turns liquid) is 92 to 95 °C. In addition, the IC50 in series [1] worked out at 0.66 nM. The molecule also yielded a half-maximal inhibitory concentration (IC50) in series [2] of 0.75 nM.

The molecule `COc1nc2ccc3c(c2o1)C(CCNC(C)=O)CC3` (stereo not shown) [Example 38, N-[2-(2-Methoxy-7,8-dihydro-6H-indeno[5,4-d][1,3]oxazol-8-yl)ethyl]acetamide] yielded a melting point of 126 to 128 °C. In addition, the IC50 in series [1] was 0.54 nM. The IC50 in series [2] is 0.28 nM. Moreover, the “elimination rate (%/min/mg)” value in series [3] is given as 2.6 %/min/mg.

As for `Cc1nc2ccc3c(c2o1)C(CCNC(=O)C1CC1)CC3` (stereo not shown) [Example 43, N-[2-(2-Methyl-7,8-dihydro-6H-indeno[5,4-d][1,3]oxazol-8-yl)ethyl]cyclopropanecarboxamide], the melting point lay in the range of 134 to 137 °C. The molecule also had an IC50 in series [1] of 0.25 nM. In addition, the IC50 in series [2] was determined as 0.77 nM.

Regarding `Cc1nc2ccc3c(c2o1)C(CCNC(=O)C(F)(F)F)CC3` (stereo not shown) [Example 45, 2,2,2-Trifluoro-N-[2-(2-methyl-7,8-dihydro-6H-indeno[5,4-d][1,3]oxazol-8-yl)ethyl]acetamide], the melting point lay within 104 to 106 °C. For the same molecule, the IC50 in series [1] was 0.095 nM. Moreover, the IC50 in series [2] is 0.14 nM.

For the origin of these results see patent US8552037B2, “Tricyclic compound and pharmaceutical use thereof” (Takeda Pharmaceutical Company Limited, priority 2006, dated 2013).
